Measurements published in ChEMBL document CHEMBL5543173, “Discovery of a New Anti-Inflammatory Agent from Anemoside B4 Derivatives and Its Therapeutic Effect on Colitis by Targeting Pyruvate Carboxylase” (J Med Chem, 2024).
The source made the active and inactive calls. The calls are words filed in the database; no cut-off is given here.

Legend:
THP-1 [1] = assay: Anti-inflammatory activity in human THP-1 cells assessed as decrease in LPS-induced phosphorylated p65 level pretreated for 1 hr followed by LPS treatment for 6 hrs by Western blot analysis; assay type: functional, cell-based; conditions: dose 1-10 µM, time 7.0 hrs
THP-1 [2] = assay: Anti-inflammatory activity in human THP-1 cells assessed as decrease in LPS-induced NLRP3 level at 1 to 10 uM pretreated for 1 hr followed by LPS/ATP treatment for 6 hrs by Western blot analysis; assay type: functional, cell-based; conditions: dose 1-10 µM, time 7.0 hrs
THP-1 [3] = assay: Anti-inflammatory activity in human THP-1 cells assessed as decrease in LPS-induced P20 level at 1 to 10 uM pretreated for 1 hr followed by LPS/ATP treatment for 6 hrs by Western blot analysis; assay type: functional, cell-based; conditions: dose 1-10 µM, time 7.0 hrs
THP-1 [4] = assay: Anti-inflammatory activity in human THP-1 cells assessed as decrease in LPS-induced TNF-alpha level pretreated for 1 hr followed by LPS treatment for 24 hrs by ELISA; assay type: functional, cell-based; conditions: dose 0.1-10 µM, time 25.0 hrs
Mus musculus [5] = assay: Anti-colitis activity in ICR mouse model assessed as reversal of DSS-induced colon shortening administered intragastrically for 9 days consecutively; assay type: functional, organism-based; conditions: route ig, time 9.0 day
[6] = Toxicity in ICR mouse assessed as change in lungs index at 300 mg/kg, IG measured for 9 days; assay type: organism-based; conditions: in vivo, po, 216 h, time 9 day
Mus musculus [7] = assay: Anti-colitis activity in ICR mouse model assessed as reversal of DSS-induced spleen weight at 15 to 60 mg/kg, IG treated for 9 days consecutively; assay type: functional, organism-based; conditions: dose 15-60 mg/kg, time 9.0 day
[8] = Toxicity in ICR mouse assessed as change in liver index at 300 mg/kg, IG measured for 9 days; assay type: organism-based; conditions: in vivo, po, 216 h, time 9 day
[9] = Tmax in ICR mouse at 15 mg/kg, IG measured for 12 hrs by LC-MS/MS analysis; assay type: ADME, organism-based; conditions: in vivo, po
[10] = AUC (0 to t) in ICR mouse at 15 mg/kg, IG measured for 12 hrs by LC-MS/MS analysis; assay type: ADME, organism-based; conditions: in vivo, po
[11] = Tmax in colon of ICR mouse at 15 mg/kg, IG measured for 12 hrs by LC-MS/MS analysis; assay type: ADME, organism-based; conditions: po
[12] = Half life in colon of ICR mouse at 15 mg/kg, IG measured for 12 hrs by LC-MS/MS analysis; assay type: ADME, organism-based; conditions: po
[13] = AUC (0 to t) in colon of ICR mouse at 15 mg/kg, IG measured for 12 hrs by LC-MS/MS analysis; assay type: ADME, organism-based; conditions: po
[14] = MRT (0 to t) in colon of ICR mouse at 15 mg/kg, IG measured for 12 hrs by LC-MS/MS analysis; assay type: ADME, organism-based; conditions: po
[15] = Volume of distribution in colon of ICR mouse at 15 mg/kg, IG measured for 12 hrs by LC-MS/MS analysis; assay type: ADME, organism-based; conditions: in vivo, po
[16] = Cmax in Sprague-Dawley rat administered as hydroxypropyl-beta-cyclodextrin at 20 mg/kg, IG measured for 12 hrs by LC-MS/MS analysis; assay type: ADME, organism-based; conditions: in vivo, po
[17] = AUC (0 to t) in Sprague-Dawley rat administered as hydroxypropyl-beta-cyclodextrin at 20 mg/kg, IG measured for 12 hrs by LC-MS/MS analysis; assay type: ADME, organism-based; conditions: in vivo, po
[18] = MRT (0 to t) in […] administered as hydroxypropyl-beta-cyclodextrin at 20 mg/kg, IG measured for 12 hrs by LC-MS/MS analysis; assay type: ADME, organism-based; conditions: in vivo, po
THP-1 [19] = assay: Anti-inflammatory activity in human THP-1 cells assessed as decrease in LPS-induced IL-6 level at 10 uM pretreated for 1 hr followed by LPS treatment for 24 hrs in presence of DADA by ELISA; assay type: functional, cell-based; conditions: time 25.0 hrs
THP-1 [20] = assay: Anti-inflammatory activity in human THP-1 cells assessed as decrease in LPS-induced IL-1beta level at 10 uM pretreated for 1 hr followed by LPS treatment for 24 hrs in presence of DADA by ELISA; assay type: functional, cell-based; conditions: time 25.0 hrs
THP-1 [21] = assay: Anti-inflammatory activity in human THP-1 cells assessed as decrease in LPS-induced TNF-alpha level at 10 uM pretreated for 1 hr followed by LPS treatment for 24 hrs in presence of DADA by ELISA; assay type: functional, cell-based; conditions: time 25.0 hrs
Mus musculus [22] = assay: Anti-colitis activity in ICR mouse model assessed as […] DSS-induced colon length at 15 to 60 mg/kg, IG treated for 8 days consecutively; assay type: functional, organism-based; conditions: dose 15-60 mg/kg, time 8.0 day
Mus musculus [23] = assay: Anti-colitis activity in ICR mouse model assessed as decrease in DSS-induced DAI score at 60 mg/kg, IG treated for 8 days consecutively in presence of DADA; assay type: functional, organism-based; conditions: time 8.0 day
Mus musculus [24] = assay: Anti-colitis activity in ICR mouse model assessed as […] DSS-induced colon length at 60 mg/kg, IG treated for 8 days consecutively in presence of DADA; assay type: functional, organism-based; conditions: time 8.0 day
Mus musculus [25] = assay: Anti-colitis activity in ICR mouse model assessed as decrease in DSS-induced apoptosis in colon tissue at 15 to 60 mg/kg, IG treated for 8 days consecutively by H and E staining based analysis; assay type: functional, organism-based; conditions: dose 15-60 mg/kg, time 8.0 day
Mus musculus [26] = assay: Anti-colitis activity in ICR mouse model assessed as decrease in DSS-induced inflammatory cell infiltration in colon tissue at 60 mg/kg, IG treated for 8 days consecutively in presence of DADA by H and E staining based analysis; assay type: functional, organism-based; conditions: time 8.0 day
Mus musculus [27] = assay: Anti-colitis activity in ICR mouse model assessed as decrease in DSS-induced epithelial cell injury in colon tissue at 60 mg/kg, IG treated for 8 days consecutively in presence of DADA by H and E staining based analysis; assay type: functional, organism-based; conditions: time 8.0 day
Mus musculus [28] = assay: Anti-colitis activity in ICR mouse model assessed as decrease in DSS-induced apoptosis in colon tissue at 60 mg/kg, IG treated for 8 days consecutively in presence of DADA by H and E staining based analysis; assay type: functional, organism-based; conditions: time 8.0 day
Mus musculus [29] = assay: Anti-colitis activity in ICR mouse model assessed as decrease in DSS-induced IL-6 level administered intragastrically treated for 8 days consecutively; assay type: functional, organism-based; conditions: dose 15-60 mg/kg, route ig, time 8.0 day
Mus musculus [30] = assay: Anti-colitis activity in ICR mouse model assessed as decrease in DSS-induced IL-6 level at 60 mg/kg, IG treated for 8 days consecutively in presence of DADA; assay type: functional, organism-based; conditions: time 8.0 day
Mus musculus [31] = assay: Anti-colitis activity in ICR mouse model assessed as decrease in DSS-induced pyruvate carboxylase level at 60 mg/kg, IG treated for 8 days consecutively; assay type: functional, organism-based; conditions: time 8.0 day
Mus musculus [32] = assay: Anti-colitis activity in ICR mouse model assessed as increase in DSS-reduced pyruvate level at 60 mg/kg, IG treated for 8 days consecutively; assay type: functional, organism-based; conditions: time 8.0 day
Mus musculus [33] = assay: Anti-colitis activity in ICR mouse model assessed as decrease in DSS-induced pyruvate carboxylase level at 60 mg/kg, IG treated for 8 days consecutively in presence of DADA; assay type: functional, organism-based; conditions: time 8.0 day
Mus musculus [34] = assay: Anti-colitis activity in ICR mouse model assessed as decrease in DSS-induced P65 phosphorylation in colon tissue at 60 mg/kg, IG treated for 8 days consecutively by Western blot analysis; assay type: functional, organism-based; conditions: time 8.0 day
THP-1 [35] = assay: cells; conditions: Homo sapiens, THP-1, 24 h
Description: Cytotoxicity against human THP-1 cells assessed as inhibition of cell viability incubated for 24 hrs by CCK8 assay

C=C(C)[C@@H]1CC[C@]2(C(=O)NCCCCCC(=O)OC)CC[C@]3(C)[C@H](CC[C@@H]4[C@@]5(C)CC[C@H](O[C@@H]6OC[C@H](O)[C@H](O)[C@H]6O[C@@H]6O[C@@H](C)[C@H](O)[C@@H](O)[C@H]6O)[C@@](C)(CO)[C@@H]5CC[C@]43C)[C@@H]12
Activity (THP-1 [1]): Dose-Dependent Effect
Activity (THP-1 [2]): Active
Activity (THP-1 [3]): Active
Activity (THP-1 [4]): Dose-Dependent Effect
Activity (Mus musculus [5]): Dose-Dependent Effect
Activity [6]: Non-Toxic
Activity (Mus musculus [7]): Active
Activity [8]: Non-Toxic
Tmax [9]: 0.96 h
AUCt [10]: 108.09 ng·h/mL
Tmax [11]: 1.58 h
half-life [12]: 1.54 h
AUC(0-t) at 12 h [13]: 3210 ng·h/mL
MRT last at 12 h [14]: 3.32 h
Vd [15]: 97.34 L/kg
Cmax [16]: 57.5 ng/mL
AUCt [17]: 223.22 ng·h/mL
MRT last at 12 h [18]: 4.05 h
Activity (THP-1 [19]): inactive
Activity (THP-1 [20]): inactive
Activity (THP-1 [21]): inactive
Activity (Mus musculus [22]): Active
Activity (Mus musculus [23]): inactive
Activity (Mus musculus [24]): inactive
Activity (Mus musculus [25]): Active
Activity (Mus musculus [26]): inactive
Activity (Mus musculus [27]): inactive
Activity (Mus musculus [28]): inactive
Activity (Mus musculus [29]): Dose-Dependent Effect
Activity (Mus musculus [30]): inactive
Activity (Mus musculus [31]): Active
Activity (Mus musculus [32]): Active
Activity (Mus musculus [33]): inactive
Activity (Mus musculus [34]): Active
IC50 (THP-1 [35]): ≥ 80 µM
